Experimental data reported in ChEMBL document CHEMBL3808331, “Functionalized N,N-Diphenylamines as Potent and Selective EPAC2 Inhibitors” (ACS Med Chem Lett, 2016).
Active and inactive are the calls of the source. No cut-off for these calls is given here.

Legend:
[1] = biological target: T1, Rap guanine nucleotide exchange factor 4 (Homo sapiens, UniProt Q8WZA2); assay: Inhibition of 8-NBD-cAMP binding to EPAC2 (unknown origin) by microplate reader analysis
[2] = biological target: T1, Rap guanine nucleotide exchange factor 4; assay: Inhibition of EPAC2 (unknown origin) assessed as reduction in cAMP-mediated guanine nucleotide exchange factor activity in presence of C-terminal truncated Rap1B (1 to 167 residues)-BODIPY-GDP by microplate reader analysis; conditions: for inhibition: concentration not given here
[3] = biological target: T2, Rap guanine nucleotide exchange factor 3 (Homo sapiens) (UniProt O95398); assay: Inhibition of EPAC1 (unknown origin) assessed as reduction in cAMP-mediated guanine nucleotide exchange factor activity up to 100 uM in presence of C-terminal truncated Rap1B (1 to 167 residues)-BODIPY-GDP by microplate reader analysis
T2 sequence (whole entry): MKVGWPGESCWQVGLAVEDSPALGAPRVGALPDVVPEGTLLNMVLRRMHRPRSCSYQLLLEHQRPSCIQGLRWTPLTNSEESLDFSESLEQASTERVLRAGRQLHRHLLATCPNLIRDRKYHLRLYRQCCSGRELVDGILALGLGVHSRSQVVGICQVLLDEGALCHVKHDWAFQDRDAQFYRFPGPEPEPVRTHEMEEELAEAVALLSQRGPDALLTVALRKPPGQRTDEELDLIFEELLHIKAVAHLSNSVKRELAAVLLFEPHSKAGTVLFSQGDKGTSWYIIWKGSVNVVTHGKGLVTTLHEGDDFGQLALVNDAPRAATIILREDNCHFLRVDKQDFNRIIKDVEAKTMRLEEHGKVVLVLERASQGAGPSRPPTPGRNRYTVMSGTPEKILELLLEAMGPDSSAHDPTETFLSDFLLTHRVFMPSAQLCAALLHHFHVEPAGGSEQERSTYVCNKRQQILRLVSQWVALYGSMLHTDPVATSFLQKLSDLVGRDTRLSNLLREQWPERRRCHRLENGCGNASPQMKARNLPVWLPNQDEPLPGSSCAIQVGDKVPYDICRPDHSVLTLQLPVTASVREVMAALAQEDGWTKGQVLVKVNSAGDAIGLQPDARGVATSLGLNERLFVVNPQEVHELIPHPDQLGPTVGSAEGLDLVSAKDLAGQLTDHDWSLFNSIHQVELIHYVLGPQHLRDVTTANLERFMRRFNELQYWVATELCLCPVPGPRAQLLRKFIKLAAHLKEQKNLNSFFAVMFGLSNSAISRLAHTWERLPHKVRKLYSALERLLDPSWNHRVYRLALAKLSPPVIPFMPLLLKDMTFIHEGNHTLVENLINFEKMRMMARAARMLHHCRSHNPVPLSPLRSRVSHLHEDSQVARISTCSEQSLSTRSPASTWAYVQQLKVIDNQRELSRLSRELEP

[4] = biological target: T1, Rap guanine nucleotide exchange factor 4; assay: Non-competitive inhibition of EPAC2 (unknown origin) assessed as reduction in cAMP-mediated guanine nucleotide exchange factor activity at 1 uM in presence of C-terminal truncated Rap1B (1 to 167 residues)-BODIPY-GDP
Target sequence in this assay (Q8WZA2 whole entry, looked up, the tested form may be a part): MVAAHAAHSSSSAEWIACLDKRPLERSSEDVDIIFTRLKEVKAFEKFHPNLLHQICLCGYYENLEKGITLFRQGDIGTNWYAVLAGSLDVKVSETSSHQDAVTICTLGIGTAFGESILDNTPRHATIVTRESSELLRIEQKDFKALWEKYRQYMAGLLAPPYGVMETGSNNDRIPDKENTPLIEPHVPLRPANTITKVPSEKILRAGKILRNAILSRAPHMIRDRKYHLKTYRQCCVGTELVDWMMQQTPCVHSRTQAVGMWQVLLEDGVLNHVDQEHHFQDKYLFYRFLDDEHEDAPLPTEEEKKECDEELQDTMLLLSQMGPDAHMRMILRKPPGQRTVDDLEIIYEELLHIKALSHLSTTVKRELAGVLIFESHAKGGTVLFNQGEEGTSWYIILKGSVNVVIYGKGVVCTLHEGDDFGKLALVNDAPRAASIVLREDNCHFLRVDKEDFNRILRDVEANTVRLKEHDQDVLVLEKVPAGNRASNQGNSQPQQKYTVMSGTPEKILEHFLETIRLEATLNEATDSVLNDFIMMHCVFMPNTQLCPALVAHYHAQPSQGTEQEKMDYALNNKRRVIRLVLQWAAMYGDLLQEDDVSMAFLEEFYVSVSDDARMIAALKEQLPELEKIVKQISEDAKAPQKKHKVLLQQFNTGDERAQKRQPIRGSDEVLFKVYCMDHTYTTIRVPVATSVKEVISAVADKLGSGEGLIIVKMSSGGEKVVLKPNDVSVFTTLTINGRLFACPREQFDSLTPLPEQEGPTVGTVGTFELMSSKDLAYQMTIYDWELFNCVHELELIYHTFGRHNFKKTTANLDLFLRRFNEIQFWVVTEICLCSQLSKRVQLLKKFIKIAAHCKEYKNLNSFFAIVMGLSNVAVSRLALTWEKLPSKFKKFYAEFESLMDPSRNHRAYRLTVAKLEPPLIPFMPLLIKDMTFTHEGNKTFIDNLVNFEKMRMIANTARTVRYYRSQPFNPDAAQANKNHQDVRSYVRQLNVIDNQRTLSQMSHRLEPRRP

Structure (SMILES) | IC50 [1] | also measured
Cc1cc(C)c(Nc2cc(C(F)(F)F)cc(C(F)(F)F)c2)c(C)c1 | 600 nM | IC50 [2]: 1300 nM; inhibition [2]: > 80%; inhibition [1]: Dose-dependent effect; inhibition ([1]; concentration not given here): 60%; inhibition [3]: inactive
Cc1ccc(Nc2c(C)cc(C)cc2C)c(C)c1 | 2200 nM | –
Cc1cc(C)c(Nc2c(F)cc(F)cc2F)c(C)c1 | 2700 nM | –
Cc1cc(C)c(Nc2c(C)cc(Cl)cc2Cl)c(C)c1 | 700 nM | –
Cc1cc(C)c(Nc2cc(Cl)cc(C(F)(F)F)c2)c(C)c1 | 500 nM | –
Cc1cc(C)c(Nc2cccc(Cl)c2C)c(C)c1 | 500 nM | IC50 [2]: 3600 nM; inhibition [2]: > 80%; inhibition [1]: Dose-dependent effect; inhibition ([1]; concentration not given here): 80%; inhibition [3]: inactive
Cc1cc(C)c(Nc2ccc(Br)cc2)c(C)c1 | 1600 nM | –
Cc1cc(C)c(Nc2cccc(N)c2)c(C)c1 | 34000 nM | –
CC(C)(C)c1cc(C(=O)/C(C#N)=N/Nc2cccc(Cl)c2)no1 | – | inhibition [2]: > 80%
Cc1cc(C)c(Nc2cc(Cl)c(Cl)c(Cl)c2)c(C)c1 | 1100 nM | –
Cc1cc(C)cc(Nc2c(C)cc(C)cc2C)c1 | 1700 nM | –
Cc1cc(C)c(Nc2cccc(C)c2C)c(C)c1 | 1000 nM | –
Cc1cc(C)c(C#Cc2cccc(Nc3c(C)cc(C)cc3C)c2)c(C)c1 | > 300000 nM | –
Cc1cc(C)c(Nc2c(C)cc(C)cc2C)c(C)c1 | 400 nM | IC50 [2]: 1700 nM; inhibition [2]: > 80%; inhibition [1]: Dose-dependent effect; inhibition ([1]; concentration not given here): 80%; inhibition [3]: inactive
Cc1cc(C)c(Nc2cc(C)ccc2C)c(C)c1 | 1800 nM | –
CCc1cccc(Nc2c(C)cc(C)cc2C)c1 | 1800 nM | –
Cc1cc(C)c(Nc2cc(Cl)ccc2C)c(C)c1 | 1400 nM | –
COc1cccc(Nc2c(C)cc(C)cc2C)c1 | 10700 nM | –
Cc1cc(C)c(Nc2cccc(C(F)(F)F)c2)c(C)c1 | 2000 nM | –
Cc1cc(C)c(Nc2ccc3c(c2)CCC3)c(C)c1 | 1800 nM | –

Further lines, with some results ahead:

IC50 [1] | Structure (SMILES) | also measured
5700 nM | Cc1cc(C)c(Nc2cc(F)cc(F)c2)c(C)c1 | –
1100 nM | Cc1cc(C)c(Nc2ccc(Cl)c(Cl)c2)c(C)c1 | –
3300 nM | Cc1cc(C)c(Nc2ccc(Cl)c(F)c2)c(C)c1 | –
46000 nM | Cc1cc(C)c(Nc2cccc(O)c2)c(C)c1 | –
8700 nM | Cc1cc(C)c(Nc2ccc(F)c(F)c2)c(C)c1 | –
1800 nM | Cc1cc(C)c(Nc2ccc(C)c(Cl)c2)c(C)c1 | –
3000 nM | Cc1cc(C)c(Nc2cc(F)c(F)c(F)c2)c(C)c1 | –
5800 nM | Cc1cc(C)c(Nc2cccc(F)c2)c(C)c1 | –
2900 nM | Cc1cc(C)c(Nc2ccc(F)c(Cl)c2)c(C)c1 | –
2900 nM | Cc1cc(C)c(Nc2cc(F)cc(Cl)c2)c(C)c1 | –
400 nM | Cc1cc(C)c(Nc2ccc(Cl)c(C(F)(F)F)c2)c(C)c1 | IC50 [2]: 1000 nM; inhibition [2]: > 80%; inhibition [1]: Dose-dependent effect; inhibition ([1]; concentration not given here): 80%; inhibition [4]: Active; inhibition [3]: inactive
1500 nM | Cc1cc(C)c(Nc2cccc(Br)c2)c(C)c1 | –
